Data published in US4668514A, “Penicillin derivatives” (Taiho Pharmaceutical Company Limited, priority 1983, dated 1987).

Molecular target: penicillinase (β-lactamase) derived from Bacillus sp.
Assay: β-lactamase inhibitory activity measured by microiodometry using penicillin G as substrate
Type: biochemical
Settings: read-out: 50% Inhibitory Concentration
Protocol: Test for β-lactamase inhibitory activity
The inhibitory activity against penicillinase (β-lactamase) derived from Bacillus sp. was measured by microiodometry Tanpakushitsu Kakusan Koso (Protein Nucleic Acid Enzyme), vol. 23, No. 5, pp 391 to 400 (1978) using penicillin G as a substrate.

SMILES	IC50
Cc1nnn(C[C@@]2(C)[C@H](C(=O)O)N3C(=O)C[C@H]3S2(=O)=O)c1C [Compound 2, sodium 2β-(4,5-dimethyl-1,2,3-triazol-1-yl)methyl-2α-methylpenam-3α-carboxylate 1,1-dioxide]	0.08 µM
CCCCc1nnn(C[C@@]2(C)[C@H](C(=O)O)N3C(=O)C[C@H]3S2(=O)=O)c1CCCC [Compound 5, sodium 2β-(4,5-di-n-butyl-1,2,3-triazol-1-yl)methyl-2α-methylpenam-3α-carboxylate 1,1-dioxide]	3 µM
CCCCc1cn(C[C@@]2(C)[C@H](C(=O)O)N3C(=O)C[C@H]3S2(=O)=O)nn1 [Compound 8, sodium 2β-(4-n-butyl-1,2,3-triazol-1-yl)methyl-2α-methylpenam-3α-carboxylate 1,1-dioxide]	0.23 µM
CCCCc1cnnn1C[C@@]1(C)[C@H](C(=O)O)N2C(=O)C[C@H]2S1(=O)=O [Compound 9, sodium 2β-(5-n-butyl-1,2,3-triazol-1-yl)methyl-2α-methylpenam-3α-carboxylate 1,1-dioxide]	0.65 µM
Cc1cnnn1C[C@@]1(C)[C@H](C(=O)O)N2C(=O)C[C@H]2S1(=O)=O [Compound 11, sodium 2β-(5-methyl-1,2,3-triazol-1-yl)methyl-2α-methylpenam-3α-carboxylate 1,1-dioxide]	0.24 µM
C[C@]1(Cn2cc(-c3ccccc3)nn2)[C@H](C(=O)O)N2C(=O)C[C@H]2S1(=O)=O [Compound 14, sodium 2β-(4-phenyl-1,2,3-triazol-1-yl)methyl-2α-methylpenam-3α-carboxylate 1,1-dioxide]	0.04 µM
C[C@]1(Cn2nncc2-c2ccccc2)[C@H](C(=O)O)N2C(=O)C[C@H]2S1(=O)=O [Compound 15, sodium 2β-(5-phenyl-1,2,3-triazol-1-yl)methyl-2α-methylpenam-3α-carboxylate 1,1-dioxide]	0.28 µM
C[C@]1(Cn2nnc(-c3ccccc3)c2-c2ccccc2)[C@H](C(=O)O)N2C(=O)C[C@H]2S1(=O)=O [Compound 17, 2β-(4,5-diphenyl-1,2,3-triazol-1-yl)methyl-2α-methylpenam-3α-carboxylic acid 1,1-dioxide]	0.27 µM
C[C@]1(Cn2cc(C(F)(F)F)nn2)[C@H](C(=O)O)N2C(=O)C[C@H]2S1(=O)=O [Compound 19, sodium 2α-methylpenam-2β-(4-trifluoromethyl-1,2,3-triazol-1-yl)methyl-3α-carboxylate 1,1-dioxide]	0.24 µM
COCc1cnnn1C[C@@]1(C)[C@H](C(=O)O)N2C(=O)C[C@H]2S1(=O)=O [Compound 22, sodium 2β-(5-methoxymethyl-1,2,3-triazol-1-yl)methyl-2α-methylpenam-3α-carboxylate 1,1-dioxide]	1.8 µM
CCNC(=O)c1cn(C[C@@]2(C)[C@H](C(=O)O)N3C(=O)C[C@H]3S2(=O)=O)nn1 [Compound 29, sodium 2β-(4-ethylcarbamoyl-1,2,3-triazol-1-yl)methyl-2α-methylpenam-3α-carboxylate 1,1-dioxide]	0.02 µM
C[C@]1(Cn2nnc(C(N)=O)c2C(N)=O)[C@H](C(=O)O)N2C(=O)C[C@H]2S1(=O)=O [Compound 31, sodium 2β-(4,5-dicarbamoyl-1,2,3-triazol-1-yl)methyl-2α-methylpenam-3α-carboxylate 1,1-dioxide]	0.13 µM
CC(=O)c1cn(C[C@@]2(C)[C@H](C(=O)OCc3ccc([N+](=O)[O-])cc3)N3C(=O)C[C@H]3S2(=O)=O)nn1 [Compound 32, p-nitrobenzyl 2β-(4-acetyl-1,2,3-triazol-1-yl)methyl-2α-methylpenam-3α-carboxylate 1,1-dioxide]	0.12 µM
CCOC(=O)c1nnn(C[C@@]2(C)[C@H](C(=O)O)N3C(=O)C[C@H]3S2(=O)=O)c1-c1ccccc1 [Compound 44, sodium 2β-(4-ethoxycarbonyl-5-phenyl-1,2,3-triazol-1-yl)methyl-2α-methylpenam-3α-carboxylate 1,1-dioxide]	0.4 µM
CCOC(=O)c1c(-c2ccccc2)nnn1C[C@@]1(C)[C@H](C(=O)O)N2C(=O)C[C@H]2S1(=O)=O [Compound 45, sodium 2β-(5-ethoxycarbonyl-4-phenyl-1,2,3-triazol-1-yl)methyl-2α-methylpenam-3α-carboxylate 1,1-dioxide]	0.1 µM
CC(=O)OCc1nnn(C[C@@]2(C)[C@H](C(=O)O)N3C(=O)C[C@H]3S2(=O)=O)c1COC(C)=O [Compound 47, sodium-2β-(4,5-diacetoxymethyl-1,2,3-triazol-1-yl)methyl-2α-methylpenam-3α-carboxylate 1,1-dioxide]	2.5 µM
C[C@]1(Cn2nnc(COCc3ccccc3)c2COCc2ccccc2)[C@H](C(=O)O)N2C(=O)C[C@H]2S1(=O)=O [Compound 49, 2β-(4,5-dibenzyloxymethyl-1,2,3-triazol-1-yl)methyl-2α-methylpenam-3α-carboxylic acid 1,1-dioxide]	1.5 µM
C[C@]1(Cn2nnc(CO)c2CO)[C@H](C(=O)O)N2C(=O)C[C@H]2S1(=O)=O [Compound 50, sodium 2β-(4,5-dihydroxymethyl-1,2,3-triazol-1-yl)methyl-2α-methylpenam-3α-carboxylate 1,1-dioxide]	2 µM
C[C@]1(Cn2cc(N)nn2)[C@H](C(=O)O)N2C(=O)C[C@H]2S1(=O)=O [Compound 55, 2β-(4-amino-1,2,3-triazol-1-yl)methyl-2α-methylpenam-3α-carboxylic acid 1,1-dioxide]	0.7 µM
